# Biological target: T1, human C5a receptor (CD88) (Homo sapiens, UniProt P21730)
# T1 construct: expressed in transfected cells; host or cells: rat basophilic leukemia (RBL) cells, stably transfected
# T1 sequence (P21730 1-350): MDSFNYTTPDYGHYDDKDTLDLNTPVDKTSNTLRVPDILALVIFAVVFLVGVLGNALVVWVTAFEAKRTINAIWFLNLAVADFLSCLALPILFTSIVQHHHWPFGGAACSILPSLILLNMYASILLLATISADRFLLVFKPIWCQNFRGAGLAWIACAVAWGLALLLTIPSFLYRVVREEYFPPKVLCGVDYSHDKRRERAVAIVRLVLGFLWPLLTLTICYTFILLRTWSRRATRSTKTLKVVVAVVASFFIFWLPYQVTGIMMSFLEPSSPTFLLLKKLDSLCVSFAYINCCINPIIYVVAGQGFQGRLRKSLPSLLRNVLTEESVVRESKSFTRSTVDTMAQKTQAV
# Assay: C5a induced enzyme (glucosaminidase) release assay in RBL cells expressing the human C5a receptor (Example 28)
# Assay type: cell-based
# Settings: IC50 for the inhibition of C5a induced enzyme release, RBL cells with human C5aR
# Procedure: Basophile leukemia cells from rats (RBL), which express the human C5a receptor (CD88), are cultivated in DMEM with 10% fetal calf serum, 100 U/ml penicillin, 100 μg/ml streptomycin and 2 mM glutamin (all constituents are from Biochrome, Berlin) at 37° C. and with 10% CO2 until a confluent layer is obtained. All following details refer to a tissue culture flask with 75 cm^2 surface. The used up medium is removed. The cells are washed with 10 ml PBS (Dulbecco's PBS, Biochrome) and then covered with 3 ml cell dissociation solution (CDS, Sigma). The cells are incubated for 1 minute at room temperature. Then the CDS is removed and the cells are incubated for further 10-15 minutes at 37° C. to detach the cells completely from the flask. 20 μl solution of the compound to be testet are used in the assay. […] The dilution series are prepared in ⅓ or ½ steps. […] The cells are counted and centrifuged (200 g, 10 min). The cell pellet is taken up with pre-heated HAG-CM, and the cell density is adjusted to 2×10^6 Zellen/ml. The cells are incubated for 5 minutes at 37° C. 2.7 μl of a cytochalasin B solution (1000 μg/ml in DMSO, Sigma) are added per ml cell suspension. The Zellen are incubated for another 3 min at 37° C. Then, 75 μl of the cell suspension are added to the 20 μl solution containing the compounds to be tested. […] The cells are again incubated for 10 minutes at 37° C. […] After this the plates are put on ice and centrifuged for 3 minutes at 1200×g and 4° C. […] The plate is incubated for 1 hour at 37° C. […] The IC50 value is determined by solving the four parameter equation y=((A−D)/(1+(x/C)^B))+D.
row,SMILES,IC50 [nM]
1,"COc1ccc2c(c1)C(C(=O)N(Cc1ccc(N(C)C)cc1)c1ccc(C(C)C)cc1)CCC2 (stereo not drawn) [compound 12, 7-methoxy-1,2,3,4-tetrahydro-naphthalin-1-carbonsäure (4-dimethylamino-benzyl)-(4-isopropyl-phenyl)-amide, reference compound]",89

# Same assay, conditions: RBL cells with human C5aR; read-out: IC50 for the inhibition of C5a induced enzyme release
row,SMILES,IC50 [nM]
1,CCc1c(N)cc(Cl)c(CC)c1NC(=O)N(Cc1ccc(Cl)cc1)c1ccc(NC)cc1,19
2,CCc1ccc(N(Cc2ccc(Cl)cc2)C(=O)Nc2c(CC)c(N)cc(Cl)c2CC)cc1,86
3,CCc1c(N)cc(Cl)c(CC)c1NC(=O)N(Cc1ccc(C)nc1)c1ccc(OC)c2ccccc12,55
4,CCc1c(N)cc(Cl)c(CC)c1NC(=O)N(Cc1ccc(Cl)nc1)c1ccc(C(C)C)cc1,62
5,CCc1ccc(N(C(=O)Nc2c(CC)c(N)cc(Cl)c2CC)[C@@H](C)c2ccc(Cl)cc2)cc1F,35
6,CCc1c(N)cc(Cl)c(CC)c1NC(=O)N(c1ccc(NC)cc1)[C@@H](C)c1ccc(Cl)cc1,3
7,CCc1c(N)cc(Cl)c(CC)c1NC(=O)N(c1ccc(OC)cc1F)[C@@H](C)c1ccc(Cl)cc1,31
8,"CCc1c(N)cc(Cl)c(CC)c1NC(=O)N(c1ccc(C(C)C)cc1)[C@@H](C)c1ccc(C)cc1 [(S)-3-(3-Amino-5-chlor-2,6-diethyl-phenyl)-1-(4-isopropyl-ph]",32
9,"CCc1c(N)cc(Cl)c(CC)c1NC(=O)N(c1ccc(C(C)C)cc1)[C@@H](C)c1ccc(F)cc1 [(S)-3-(3-Amino-5-chlor-2,6-diethyl-phenyl)-1-[1-(4-fluor-phe]",38
10,"Cc1ccc(CN(Cc2ccccc2)C(=O)c2ccccc2-n2cccc2)cc1 [Compound 8, N-Benzyl-N-(4-methyl-benzyl)-2-pyrrol-1-yl-benzamide, reference compound]",1920
11,"CCc1ccc(Cl)c(CC)c1NC(=O)N(Cc1ccc(OC)cc1)c1ccc(C(C)C)cc1 [compound 24, 3-(3-Chlor-2,6-diethyl-phenyl)-1-(4-isopropyl-phenyl)-1-(4-methoxy-benzyl)-urea]",1050
12,"CCc1cccc(CC)c1NC(=O)N(Cc1ccc(OC)cc1)c1ccc(C(C)C)cc1 [compound 26, 3-(2,6-diethyl-phenyl)-1-(4-isopropyl-phenyl)-1-(4-methoxy-benzyl)-urea]",524

# Same assay, conditions: inhibition of C5a induced enzyme release, RBL cells with human C5aR; read-out: Activity-range (antagonistic activity, IC50 enzyme release)
row,SMILES,IC50 [nM]
1,"Cc1ccc(CN(Cc2ccccc2)C(=O)c2ccccc2-n2cccc2)cc1 [Compound 8, N-Benzyl-N-(4-methyl-benzyl)-2-pyrrol-1-yl-benzamide, reference compound]",200 to 5000
2,"COc1ccc2c(c1)C(C(=O)N(Cc1ccc(N(C)C)cc1)c1ccc(C(C)C)cc1)CCC2 (stereo not drawn) [compound 12, 7-methoxy-1,2,3,4-tetrahydro-naphthalin-1-carbonsäure (4-dimethylamino-benzyl)-(4-isopropyl-phenyl)-amide, reference compound]",60 to 200
3,"COc1ccc(CN(C(=O)Nc2c(C(C)C)ccc(N)c2C(C)C)c2ccc(C(C)C)cc2)cc1 [compound 25, 3-(3-Amino-2,6-diisopropyl-phenyl)-1-(4-isopropyl-phenyl)-1-(4-methoxy-benzyl)-urea]",200 to 5000
4,"COc1ccc(CN(C(=O)Nc2c(C(C)C)ccc(NC(C)=O)c2C(C)C)c2ccc(C(C)C)cc2)cc1 [compound 27, N-{2,4-diisopropyl-3-[3-(4-isopropyl-phenyl)-3-(4-methoxy-benzyl)-ureido]-phenyl}-acetamide]",> 5000
5,"CCc1ccc(N)c(CC)c1NC(=O)N(Cc1ccc(OC)cc1)c1ccc(C(C)C)cc1 [compound 28, 3-(3-amino-2,6-diethyl-phenyl)-1-(4-isopropyl-phenyl)-1-(4-methoxy-benzyl)-urea]",200 to 5000
6,"CCc1ccc(NCC(N)=O)c(CC)c1NC(=O)N(Cc1ccc(OC)cc1)c1ccc(C(C)C)cc1 [compound 29, 2-{2,4-diethyl-3-[3-(4-isopropyl-phenyl)-3-(4-methoxy-benzyl)-ureido]-phenylamino}-acetamide]",200 to 5000
7,"CCc1ccc(NCC(=O)OC)c(CC)c1NC(=O)N(Cc1ccc(OC)cc1)c1ccc(C(C)C)cc1 [compound 30, {2,4-diethyl-3-[3-(4-isopropyl-phenyl)-3-(4-methoxy-benzyl)-ureido]-phenylamino}-acetic acid methyl ester]",200 to 5000
8,"CCc1ccc(N(Cc2ccc(OC)cc2)C(=O)Nc2c(CC)c(N)cc(Cl)c2CC)cc1 [compound 32, 3-(3-amino-5-chloro-2,6-diethyl-phenyl)-1-(4-ethyl-phenyl)-1-(4-methoxy-benzyl)-urea]",200 to 5000
9,"CCc1c(N)cc(Cl)c(CC)c1NC(=O)N(Cc1ccc(OC(F)(F)F)cc1)c1ccc(C(C)C)cc1 [compound 33, 3-(3-amino-5-chloro-2,6-diethyl-phenyl)-1-(4-isopropyl-phenyl)-1-(4-trifluoromethoxy-benzyl)-urea]",200 to 5000
10,"CCc1c(N)cc(Cl)c(CC)c1NC(=O)N(Cc1ccc(C)cc1)c1ccc(C(C)C)cc1 [compound 34, 3-(3-amino-5-chloro-2,6-diethyl-phenyl)-1-(4-isopropyl-phenyl)-1-(4-methyl-benzyl)-urea]",60 to 200
11,"CCc1ccc(CN(C(=O)Nc2c(CC)c(N)cc(Cl)c2CC)c2ccc(C(C)C)cc2)cc1 [compound 35, 3-(3-amino-5-chloro-2,6-diethyl-phenyl)-1-(4-ethyl-benzyl)-1-(4-isopropyl-phenyl)-urea]",200 to 5000
12,"CCc1c(Cl)cc(NCc2ccco2)c(CC)c1NC(=O)N(Cc1ccc(OC)cc1)c1ccc(C(C)C)cc1 [compound 36, 3-{3-Chloro-2,6-diethyl-5-[(furan-2-ylmethyl)-amino]-phenyl}-1-(4-isopropyl-phenyl)-1-(4-methoxy-benzyl)-urea]",200 to 5000
13,"CCc1c(Cl)cc(NCC(=O)N(C)C)c(CC)c1NC(=O)N(Cc1ccc(OC)cc1)c1ccc(C(C)C)cc1 [compound 37, 2-{5-chloro-2,4-diethyl-3-[3-(4-isopropyl-phenyl)-3-(4-methoxy-benzyl)-ureido]-phenylamino}-N,N-dimethyl-acetamide]",200 to 5000
14,"CCc1c(Cl)cc(NCc2nccn2C)c(CC)c1NC(=O)N(Cc1ccc(OC)cc1)c1ccc(C(C)C)cc1 [compound 38, 3-{3-chloro-2,6-diethyl-5-[(1-methyl-1H-imidazol-2-ylmethyl)-amino]-phenyl}-1-(4-isopropyl-phenyl)-1-(4-methoxy-benzyl)-urea]",200 to 5000
15,"CCc1ccc(N)c(CC)c1NC(=O)N(Cc1ccc(C)cc1)c1ccc(C(C)C)cc1 [compound 39, 3-(3-amino-2,6-diethyl-phenyl)-1-(4-isopropyl-phenyl)-1-(4-methyl-benzyl)-urea]",200 to 5000
16,"COc1ccc(CN(C(=O)Nc2c(C)ccc3c2CCCN3)c2ccc(C(C)C)cc2)cc1 [compound 40, 1-(4-isopropyl-phenyl)-1-(4-methoxy-benzyl)-3-(6-methyl-1,2,3,4-tetrahydro-chinolin-5-yl)-urea]",> 5000
17,"CCc1c(N)cc(Cl)c(CC)c1NC(=O)N(c1ccc(C(C)C)cc1)[C@@H]1CCCc2ccccc21 [compound 41, (R)-3-(3-amino-5-chloro-2,6-diethyl-phenyl)-1-(4-isopropyl-phenyl)-1-(1,2,3,4-tetrahydro-naphthaline-1-yl)-urea]",200 to 5000
18,"CCc1c(N)cc(Cl)c(CC)c1NC(=O)N(c1ccc(C(C)C)cc1)[C@H]1CCCc2ccccc21 [compound 42, (S)-3-(3-amino-5-chloro-2,6-diethyl-phenyl)-1-(4-isopropyl-phenyl)-1-(1,2,3,4-tetrahydro-naphthaline-1-yl)-urea]",60 to 200
19,"CCc1c(N)cc(Cl)c(CC)c1NC(=O)N(Cc1ccccc1)c1ccc(C(C)C)cc1 [compound 43, 3-(3-amino-5-chloro-2,6-diethyl-phenyl)-1-benzyl-1-(4-isopropyl-phenyl)-urea]",200 to 5000
20,"CCc1c(N)cc(Cl)c(CC)c1NC(=O)N(Cc1ccc(OC)cc1)c1ccc2c(c1)CCC2 [compound 44, 3-(3-amino-5-chloro-2,6-diethyl-phenyl)-1-indane-5-yl-1-(4-methoxy-benzyl)-urea]",200 to 5000
